{"source": "patent US20230381139A1", "about": "“METHODS OF TREATING AND/OR PREVENTING ALZHEIMER’S DISEASE WITH R-CARVEDILOL” (priority 2020, published 2023)", "key": {"[1]": {"tested_on": "oligomeric Aβ", "details": "chronic treatment, animal studies; cited from earlier work"}, "[2]": {"tested_on": "hippocampal CA3-CA1 pathway of 5×FAD+/− mice", "assay": "Long-term potentiation / fEPSP recording in hippocampal slices from treated 5×FAD+/− mice", "assay_type": "in vivo, mouse", "details": "3.2 mg/kg/day for one month started at 2-3 months of age (before AD symptoms), slices at 3-4 months; vs DMSO", "protocol": "Adult genetically engineered mice, 5×FAD^+/− (Oakley et al., 2006), RyR2-E4872Q^+/− (EQ^+/−) (Chen et al., 2014), 5×FAD^+/−/RyR2-E4872Q^+/− (5×FAD^+/−/EQ^+/−), and wildtype (WT) littermates of both sexes were used. R-carvedilol (R-CV) (at doses of 0.8, 1.6 or 3.2 mg/kg/day), racemic carvedilol (3.2 mg/kg/day), and vehicle control (DMSO) were delivered to 5×FAD^+/− mice in drinking water for one month, starting at different ages before (2-3 months old) or after (3-4 months old) the occurrence of AD pathologies (Oakley et al., 2006). To assess the effects of genetically and pharmacologically limiting RyR2 open time on the prevention and rescue of AD deficits in different stages (early, moderate, and late) of AD progression, animals at different ages (from 2-15 months) were used. […] For 2-photon Ca^2+ imaging experiments, 5×FAD, RyR2 WT, and RyR2 mutant mice were cross-bred with the heterozygous Thy1-GCaMP6f transgenic mice (Chen et al., 2012; Chen et al., 2013) (GP5.17, JAX 025393) to express the GCaMP6f Ca^2+ sensing probe (driven by the Thy1 promotor) in hippocampal neurons in each of the genotypes used.\nSchaffer collateral fibers were stimulated at the CA3 subfield to record field excitatory postsynaptic potentials (fEPSPs) in the CA1 stratum radiatum of transverse hippocampal slices ([…]) from all genotypes and drug-treated mice at different ages. After recovering at room temperature for 1 h (or 2 h for brain slices from drug-treated mice), hippocampal slices were allowed to recover in the recording chamber for additional 10 min. To evaluate basal synaptic transmission, different stimulation strengths (0 μA to 200 μA in steps of 20 μA) were applied and plotted fEPSP slopes versus the current input to compare the slope of input/output (I/O) curves of fEPSP. In the experiments that followed, stimulus current was adjusted so that fEPSP stabilized at 40-50% of maximum. Baseline was recorded for at least […] until the differences among fEPSP slopes were within 10%. Long-term potentiation (LTP) was induced using a tetanic high-frequency stimulation (HFS; 4 trains of 100 pulses at 100 Hz, with 20-sec intervals). Synaptic responses were recorded for at least 60 min after tetanization and quantified as the slope of the evoked fEPSP as percentage of the baseline."}, "[3]": {"tested_on": "5×FAD+/− mice", "assay": "Learning and memory tests (Morris water maze, novel object recognition) in 5×FAD+/− mice", "assay_type": "in vivo, mouse", "details": "3.2 mg/kg/day for one month started at 2-3 months of age (before AD symptoms), tested at 3-4 months; vs DMSO", "protocol": "Adult genetically engineered mice, 5×FAD^+/− (Oakley et al., 2006), RyR2-E4872Q^+/− (EQ^+/−) (Chen et al., 2014), 5×FAD^+/−/RyR2-E4872Q^+/− (5×FAD^+/−/EQ^+/−), and wildtype (WT) littermates of both sexes were used. R-carvedilol (R-CV) (at doses of 0.8, 1.6 or 3.2 mg/kg/day), racemic carvedilol (3.2 mg/kg/day), and vehicle control (DMSO) were delivered to 5×FAD^+/− mice in drinking water for one month, starting at different ages before (2-3 months old) or after (3-4 months old) the occurrence of AD pathologies (Oakley et al., 2006). To assess the effects of genetically and pharmacologically limiting RyR2 open time on the prevention and rescue of AD deficits in different stages (early, moderate, and late) of AD progression, animals at different ages (from 2-15 months) were used. As reported (Oakley et al., 2006), there was an age-dependence of AD progression in the 5×FAD^+/− mice. No sex-dependent differences in AD progression in these mice was observed. For 2-photon Ca^2+ imaging experiments, 5×FAD, RyR2 WT, and RyR2 mutant mice were cross-bred with the heterozygous Thy1-GCaMP6f transgenic mice (Chen et al., 2012; Chen et al., 2013) (GP5.17, JAX 025393) to express the GCaMP6f Ca^2+ sensing probe (driven by the Thy1 promotor) in hippocampal neurons in each of the genotypes used.\nThe learning and memory of mice with all genotypes were evaluated using the Morris water maze (MWM) test, the Barnes maze (BM) test, and/or the novel object recognition (NOR) test. Experiments were carried out blindly. For the MWM test, mice at different ages were trained to localize a hidden escape platform (10×10 cm) in a circular pool (116.84 cm in diameter, 50 cm in depth) (San Diego Instruments, CA) via distal visual cue. The platform was submerged 1-2 cm beneath the surface in water (22-24°C.), which was rendered opaque by addition of milk powder. The localization of the pool in relation to visual cues was maintained constantly during the entire task. The cues were distinct in color and shape. Digital division of the tracking area (pool) into four quadrants was performed by the SMART video tracking system, Smart 3.0 (Panlab Harvard Apparatus; Barcelona Spain). The escape platform was placed in the centre of the south-west quadrant for the entirety of the learning phase (4 training days) and digitally defined as target. Spatial training consisted of 4 days with 5 trials per mouse per day. Mice were released with their heads facing the pool wall at one of four entry locations (north, east, south and west) in a non-repetitive random order. Swimming was automatically video-tracked until the subject found the escape platform and remained on it (≥5 sec), or until a maximum of 60 seconds. […] In between trials (inter-trial interval ≥10 min), mice were housed in heated cages to avoid performance deficits due to exhaustion or hypothermia. The latency and swimming speed to reach the escape platform were recorded for comparison. After the learning phase, memory retention was evaluated by one probe trial 24 hours after the last training session. The escape platform was removed before mice were released from the north entry point into the pool. Their swimming was video-tracked for 60 seconds. The area at the location of the removed hidden platform was defined as the target and the south-west quadrant the target quadrant. The percentage of time mice spent in the target quadrant (including the target) were measured for comparison.\nFor the NOR test, mice were habituated for 10 min per mouse in an equally illuminated, odor-free, white, plastic box (40×40×50 cm^3) embedded with fresh aspen shavings and shreds. In between each mouse trial the box was wiped with ethanol to avoid odor-induced stress. 24 hours after habituation, two identical objects ware placed at equal distance to each other and the corners of the box. Each mouse was placed into the center, and allowed to move freely for 10 min. Mice were video recorded during this familiarizing phase. […]"}, "[4]": {"tested_on": "ryanodine receptor (RyR2)", "details": "cited from earlier work"}, "[5]": {"tested_on": "AD", "details": "racemic mixture at a dose of 25 mg per day, pilot clinical trial; cited from earlier work"}, "[6]": {"tested_on": "Kv4.2/KChIP4 channel complex", "assay": "Whole-cell A-type K+ current recording in Kv4.2/KChIP4 transfected HEK293 cells expressing RyR2 WT", "assay_type": "cell-based", "details": "caffeine 2.5 mM, 2 min after application vs baseline", "protocol": "Previous studies used whole-cell patch clamp recordings at the soma of CA1 pyramidal cells to measure the whole-cell A-type K^+ current (Chen, 2005; Good et al., 1996; Hall et al., 2015; Scala et al., 2015). To make comparisons to earlier studies, the same approach was employed. Briefly, whole-cell A-type K^+ current (IA) was elicited by depolarizing pulses to +40 mV from a holding potential of −100 mV in the presence of 20 mM tetraethylammonium (TEA) and 100 nM tetrodotoxin (TTX). In steady-state activation experiments, membrane potential was held at −100 mV, and IA was evoked by a 200-ms depolarizing pulse from a first pulse potential of −80 mV to +80 my in 10-mV steps at 10-s intervals, Data were analyzed using the equation GK=IK/(Vm−Vrev), where GK is the membrane K^+ conductance, Vm is the membrane potential, and Vrev is the reversal potential for K^+. To study steady-state inactivation of IA, currents were elicited using 1-s conditioning pre-pulses from −110 mV to 0 mV before a 200-ms test pulse of +50 mV. After normalizing each current amplitude to the maximal current, amplitude obtained from the −110 mV pre-pulse was used as a function of the conditioning pre-pulse potential and fitted with the function IA/IA−max=1/(1+exp((Vm1/2−Vm)/k)), from which, an inactivation curve of IA was obtained, and the VH value (the voltage at which the current amplitude was half-inactivated) was calculated. The somatic whole-cell recordings provide information on the magnitude of somatic A-type K^+ current, an important determinant of somatic excitability.\nFor HEK293 cell experiments, HEK293 cell lines were maintained as previously described (Jiang et al., 2004) and transiently transfected with cDNAs of Kv4.2 and KChIP4 together with cDNA encoding for GFP to identify cells successfully transfected. 12-16 h before recording, tetracycline was added to culture media to induce the expression of RyR2 WI or RyR2 E4872Q mutant. IA was recorded with the same protocols as described above. Prior to IA recording, the culture medium was replaced with a bath solution (NaCl, 125 mM; KCl, 2.5 mM; HEPES, 10 mM; MgCl2, 1 mM; glucose, 10 mM; TEA, 20 mM; pH 7.4 adjusted with NaOH)."}, "[7]": {"tested_on": "5×FAD+/− CA1 pyramidal neurons", "assay": "Whole-cell patch-clamp recording of action potential firing in 5×FAD+/− CA1 pyramidal neurons in brain slices", "assay_type": "cell-based, mouse", "details": "10 μM, 3-4 months old 5×FAD+/− CA1 pyramidal neurons", "protocol": "Acute brain slices were prepared according to the published procedures with some modifications (Ting et al., 2014; Ting et al., 2018).\nFor whole-cell patch-clamp recordings, slices were transferred to a submerged recording chamber perfused with carbogenated external solutions at a flow rate of 4-6 mL/min at room temperature. Action potentials (APs) were measured in hippocampal CA1 pyramidal neurons in transverse hippocampal slices (260 μm) from all genotypes of 3-4 months old mice using whole-cell patch-clamp with an […] amplifier (Axon Instruments). […] Membrane potentials in 5-6 months old or older neurons were not measured as aged neurons are difficult to patch. AP firing was recorded in an external solution (NaCl, 124 mM; KCl, 2.5 mM; NaH2PO4, 1.25 mM; NaHCO3, 24 mM; HEPES, 5 mM; glucose, 12.5 mM; MgCl2, 2 mM; and CaCl2, 2 mM; pH 7.4 adjusted with NaOH) and soft-glass recording pipettes (Sutter Instruments; Novato CA) filled with an internal solution (potassium gluconate, 135 mM, KCl, 10 mM, HEPES, 10 mM, CaCl2, 1 mM, MgCl2, 1 mM, EGTA, 10 mM, ATP, 1 mM, GTP, 0.1 mM, and pH 7.3 adjusted with KOH). […] For spontaneous AP recording, cells were hold at −70 mV and recorded for 3 min. […] For testing the Kv4 channel agonist NS5806, APs were measured before and 15 min after perfusion of 10 μM NS5806 in the external solution. […]"}}}
{"compound": "COc1ccccc1OCCNCC(O)COc1cccc2[nH]c3ccccc3c12", "note": "(racemic) [Racemic carvedilol, carvedilol]", "values": [{"measurement": "content of oligomeric Aβ in the brain", "setting": "[1]", "value": "significantly reduced"}, {"measurement": "LTP impairment", "setting": "[2]", "value": "did not prevent"}, {"measurement": "memory loss / learning and memory deficits (MWM, NOR)", "setting": "[3]", "value": "did not prevent"}, {"measurement": "store-overload-induced Ca2+ release", "setting": "[4]", "value": "reduces"}, {"measurement": "improvement in AD", "setting": "[5]", "value": "no significant improvement"}]}
{"compound": "Cn1c(=O)c2c(ncn2C)n(C)c1=O", "note": "[Caffeine]", "values": [{"measurement": "Kv4.2-mediated current", "setting": "[6]", "value": "decreased"}, {"measurement": "decay time (inactivation time constant Tau) of Kv4.2-mediated current", "setting": "[6]", "value": "decreased"}, {"measurement": "voltage-dependent activation of Kv4.2-mediated current", "setting": "[6]", "value": "without altering"}, {"measurement": "voltage-dependent inactivation of Kv4.2-mediated current", "setting": "[6]", "value": "without altering"}]}
{"compound": "O=C(Nc1cc(C(F)(F)F)cc(C(F)(F)F)c1)Nc1c(Br)cc(Br)cc1-c1nn[nH]n1", "note": "[NS5806]", "values": [{"measurement": "threshold current for inducing AP firing", "setting": "[7]; before vs 15 min after perfusion", "value": "dramatically increased"}, {"measurement": "frequency of AP firing", "setting": "[7]; current injection-triggered", "value": "decreased"}]}
